Measured values reported in PubChem BioAssay (NCI).
Where “and” joins values, the source holds several entries; their conditions need not be identical. Equal values may be shown once.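 Exposure lasted 48 hours, with cells grown in 96-well plates and compounds tested at five concentrations. Abbreviation: GI50, concentration required for 50% inhibition of growth. At the TGI there is no net growth.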

Assays:
Test in all cases: NCI tumour cell line growth inhibition, 48 h
MOLT-4 leukemia = test system: MOLT-4 leukemia
SNB-75 CNS = test system: SNB-75 CNS
KM12 colon = test system: KM12 colon
MDA-MB-231 breast = test system: MDA-MB-231 breast
COLO 205 colon = test system: COLO 205 colon
SK-MEL-2 melanoma = test system: SK-MEL-2 melanoma
OVCAR-4 ovarian = test system: OVCAR-4 ovarian
A498 renal = test system: A498 renal

Row | SMILES | GI50 (MOLT-4 leukemia) [nM] | TGI (MOLT-4 leukemia) [µM] | GI50 (SNB-75 CNS) [nM] | TGI (SNB-75 CNS) | GI50 (KM12 colon) [nM] | TGI (KM12 colon) | GI50 (MDA-MB-231 breast) [nM] | TGI (MDA-MB-231 breast) [µM] | GI50 (COLO 205 colon) [nM] | TGI (COLO 205 colon) [µM] | GI50 (SK-MEL-2 melanoma) [nM] | TGI (SK-MEL-2 melanoma) | GI50 (OVCAR-4 ovarian) [nM] | TGI (OVCAR-4 ovarian) [µM] | GI50 (A498 renal) [nM] | TGI (A498 renal) [µM]
1 | O=c1c2cccc(F)c2sc2c(NCCCNCCO)nc3ccccc3c12 | 698 | 2.43 | 1560 | 2.99 µM | 1610 | 3.04 µM | 1260 | 2.65 | 1610 | 3.96 | 1970 | 3.95 µM | 1770 | 3.64 | 1500 | 2.88
2 | Cc1occc1C(=S)Nc1ccc(Cl)c(C(=O)OCC(C)C)c1 | – | 44.8 | – | 29.4 µM | – | 27.5 µM | – | 31.4 | – | 39.9 | – | 40.2 µM | – | 39.2 | – | 30.4
3 | CC1NC(C(=O)O)Cc2cc(O)c(O)cc21 (stereo not drawn) | – | > 100 | – | – | – | > 100 µM | – | > 100 | – | > 100 | – | > 100 µM | – | > 100 | – | > 100
4 | CC(=O)OC1CC2C(C)(C)CCC[C@]2(C)C2=C1C(O)=C(C(C)C)C(=O)C2=O (stereo partly drawn) | 1400 | > 30.8 | 1200 | 3.03 µM | 644 | 2.15 µM | 477 | 3.74 | 1470 | 3.33 | 356 | 1.39 µM | 800 | 7.07 | 402 | 1.79
5 | O=C(/C=C/c1ccco1)Nc1ncc(Cc2cccc(C(F)(F)F)c2)s1 | 84 | 26 | 30.1 | 1.65 µM | 43.2 | > 31.8 µM | 153 | 4.8 | 43.3 | 0.166 | 96.6 | 5.28 µM | 495 | 4.03 | 26.7 | 1.73
6 | Cc1cc2c(C(=O)NCC#N)cccc2n1-c1nc2c(c(NCc3ccccc3)n1)CCCC2 | 313 | 65.6 | 345 | 1.74 µM | 242 | 0.643 µM | 273 | 0.59 | 201 | 0.404 | 231 | 0.644 µM | 322 | 1.76 | – | –
7 | CCC1=C[C@@H]2CN(C1)Cc1c([nH]c3ccccc13)[C@@](C(=O)OC)(c1cc3c(cc1OC)N(C)[C@H]1[C@@](O)(C(=O)OC)[C@H](OC(C)=O)[C@]4(CC)C=CCN5CC[C@]31[C@@H]54)C2 | < 10 | 3.5 | < 10 | 7.92 µM | – | – | < 18 | 8.04 | < 10 | 0.0775 | 727 | 9.23 µM | < 10 | 21 | < 10 | 0.141
8 | Nc1c(C(=O)c2ccc(C#CCN3CCOCC3)cc2)cnn1-c1ccc(F)cc1 | > 25000 | > 25 | > 25000 | > 25 µM | > 25000 | > 25 µM | > 25000 | > 25 | > 25000 | > 25 | > 25000 | > 25 µM | > 25000 | > 25 | > 25000 | > 25
9 | C[C@]12CCCN1CC1=NNC(=O)c3cc(F)cc4[nH]c2c1c34 | 22300 | > 100 | 13600 | 35.9 µM | 9600 | 30.3 µM | 18000 | 66.5 | 14600 | 40.6 | 22300 | 52.4 µM | 24900 | > 100 | 13900 | 34.3
10 | NC(CP(=O)(O)O)C(=O)O (stereo not drawn) | – | > 100 | – | > 100 µM | – | > 100 µM | – | > 100 | – | > 100 | – | > 100 µM | – | > 100 | – | > 100
11 | COc1ccc(C2=NN(C=O)C(c3ccc(OS(=O)(=O)c4ccc(C)cc4)c(OC)c3)C2)cc1 (stereo not drawn) | 5230 | > 100 | 3330 | 25.1 µM | 9230 | > 100 µM | 5520 | > 100 | 8440 | > 100 | 3520 | 38.6 µM | – | – | 1810 | > 100
12 | CC(=O)NC(CS)C(=O)O (stereo not drawn) | > 100000 | > 100 | > 100000 | > 100 µM and 89800 µM | > 100000 | > 100 µM and 98100 µM | – | – | > 100000 | > 100 | > 100000 | > 100 µM and 66300 µM | > 100000 | > 100 | – | 18500
